Measured values: patent publication US20240116985A1, “STAPLED PEPTIDES AND METHODS THEREOF” (priority 2020, published 2024)
Values after ≈ are worked out from the molar mass of the structure shown. Read-outs that look alike come from different tables or passages of the source.

How the values were obtained:
CHI Log D procedure = assay type: physicochemical; settings: for CHI Log D: pH 7.4; for chromatographic logD / logD: pH 7.4, CHI Log D
Solubility in PBS = assay type: physicochemical
Outline: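 HPLC quantitation of peptide remaining in the PBS supernatant after ultracentrifugation, referenced to a 50 μM solution in DMSO.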

Solubility (Solubility in PBS)	logD (CHI Log D procedure)	Solubility (Solubility in PBS; Solubility (uM))	Structure (SMILES)	other results
50 µM (≈ 94.2 µg/mL)	–	–	CC[C@H](C)[C@@H]1NC(=O)[C@H](CC(=O)O)NC(=O)[C@]2(CC=CCCCC3(CCCC=CCCCCCC[C@@](C)(C(=O)N[C@@H](Cc4ccccc4)C(=O)N[C@@H](Cc4ccccc4)C(=O)N[C@@H](CCC(N)=O)C(N)=O)NC(=O)[C@H](CCC(N)=O)NC(=O)[C@H](Cc4csc5ccccc45)NC(=O)[C@H](C)NC(=O)[C@H](C)NC(=O)[C@H](CCC(=O)O)NC(=O)[C@H](CC(=O)O)NC3=O)NC1=O)CCCN2C(C)=O (stereo partly drawn) [I-586, Ac-PL3-Asp-Ile-B5-Asp-Glu-Ala-Ala-BztA-Gln-S8-Phe-Phe-Gln-NH2]	CHI Log D (CHI Log D procedure): 2.39
50 µM (≈ 94.2 µg/mL)	–	–	CC[C@H](C)[C@@H]1NC(=O)[C@H](CC(=O)O)NC(=O)[C@]2(CC=CCCCC3(CCCC=CCCCCCC[C@@](C)(C(=O)N[C@@H](CC(=O)O)C(=O)N[C@@H](Cc4csc5ccccc45)C(=O)N[C@@H](CCC(N)=O)C(N)=O)NC(=O)[C@H](CCC(N)=O)NC(=O)[C@H](Cc4ccccc4)NC(=O)[C@H](C)NC(=O)[C@H](C)NC(=O)[C@H](CCC(=O)O)NC(=O)[C@H](Cc4ccccc4)NC3=O)NC1=O)CCCN2C(C)=O (stereo partly drawn) [I-587, Ac-PL3-Asp-Ile-B5-Phe-Glu-Ala-Ala-Phe-Gln-S8-Asp-BztA-Gln-NH2]	chromatographic logD (CHI Log D procedure): 2.15
50 µM (≈ 89.1 µg/mL)	–	–	CC(=O)N1CCC[C@]12CC=CCCCC1(CCCC=CCCCCCC[C@@](C)(C(=O)N[C@@H](Cc3ccccc3)C(=O)N[C@@H](Cc3csc4ccccc34)C(N)=O)NC(=O)[C@H](CC(N)=O)NC(=O)[C@H](Cc3ccccc3)NC(=O)[C@H](C)NC(=O)[C@H](C)NC(=O)[C@H](CCC(=O)O)NC(=O)[C@H](CC(=O)O)NC1=O)NC(=O)[C@H](CC1CCCCC1)NC(=O)[C@H](CC(=O)O)NC2=O (stereo partly drawn) [I-626, Ac-PL3-Asp-Cha-B5-Asp-Glu-Ala-Ala-Phe-Asn-S8-Phe-BztA-NH2]	CHI Log D (CHI Log D procedure): 2.048
50 µM (≈ 92.6 µg/mL)	–	–	CC[C@H](C)[C@@H]1NC(=O)[C@H](CC(=O)O)NC(=O)[C@]2(CC=CCCCC3(CCCC=CCCCCCC[C@@](C)(C(=O)N[C@@H](Cc4ccccc4)C(=O)N[C@@H](Cc4csc5ccccc45)C(=O)N4CCC[C@H]4C(N)=O)NC(=O)[C@H](CCC(N)=O)NC(=O)[C@H](Cc4ccccc4)NC(=O)[C@H](C)NC(=O)[C@H](C)NC(=O)[C@H](CCC(=O)O)NC(=O)[C@H](CC(=O)O)NC3=O)NC1=O)CCCN2C(C)=O (stereo partly drawn) [I-637, Ac-PL3-Asp-Ile-B5-Asp-Glu-Ala-Ala-Phe-Gln-S8-Phe-BztA-Pro-NH2]	CHI Log D (CHI Log D procedure): 2.554
–	2	47 µM (≈ 100 µg/mL)	CC(=O)N1CCC[C@]12CC=CCCCC1(CCCC=CCCCOC(=O)N3CC[C@@](C(=O)N[C@@H](Cc4ccsc4)C(=O)N[C@@H](Cc4csc5ccccc45)C(=O)N[C@@H](CCC(N)=O)C(=O)N[C@@H](C)C(=O)N[C@@H](C)C(=O)N[C@H](C)C(N)=O)(C3)NC(=O)[C@H](CC(N)=O)NC(=O)[C@H](Cc3ccccc3)NC(=O)[C@H](C)NC(=O)[C@H](C)NC(=O)[C@H](CC(=O)O)NC(=O)[C@H](CC(=O)O)NC1=O)NC(=O)[C@H](CC(C)(C)C)NC(=O)[C@H](CC(=O)O)NC2=O (stereo partly drawn) [I-873, Ac-PL3-Asp-Npg-B5-Asp-Asp-Ala-Ala-Phe-Asn-PyrS2-3Thi-BztA-Gln-Ala-Ala]	–
50 µM (≈ 104 µg/mL)	2.31	–	CC(=O)N1CCC[C@]12CC=CCCCC1(CCCC=CCCCCCC[C@@](C)(C(=O)N[C@@H](Cc3ccsc3)C(=O)N[C@@H](Cc3csc4ccccc34)C(=O)N[C@@H](CCC(N)=O)C(=O)N[C@@H](C)C(=O)N[C@@H](C)C(=O)N[C@@H](C)C(N)=O)NC(=O)[C@H](CC(N)=O)NC(=O)[C@H](Cc3ccccc3)NC(=O)[C@H](C)NC(=O)[C@H](C)NC(=O)[C@H](CC(=O)O)NC(=O)[C@H](CC(=O)O)NC1=O)NC(=O)[C@H](CC(C)(C)C)NC(=O)[C@H](CC(=O)O)NC2=O (stereo partly drawn) [I-874, Ac-PL3-Asp-Npg-B5-Asp-Asp-Ala-Ala-Phe-Asn-S8-3Thi-BztA-Gln-Ala-Ala]	–

Further lines, the compound ahead of its results:

Structure (SMILES)	Solubility (Solubility in PBS)	logD (CHI Log D procedure)	Solubility (Solubility in PBS; Solubility (uM))	other results
CC[C@H](C)[C@@H]1NC(=O)[C@H](Cc2ccccc2)NC(=O)[C@]2(CC=CCCCC3(CCCC=CCCCCCC[C@@](C)(C(=O)N[C@@H](Cc4ccccc4)C(=O)N[C@@H](Cc4csc5ccccc45)C(=O)N[C@@H](CCC(N)=O)C(N)=O)NC(=O)[C@H](CCC(N)=O)NC(=O)[C@H](CC(=O)O)NC(=O)[C@H](C)NC(=O)[C@H](C)NC(=O)[C@H](CCC(=O)O)NC(=O)[C@H](CC(=O)O)NC3=O)NC1=O)CCCN2C(C)=O (stereo partly drawn) [I-588, Ac-PL3-Phe-Ile-B5-Asp-Glu-Ala-Ala-Asp-Gln-S8-Phe-BztA-Gln-NH2]	–	–	–	chromatographic logD (CHI Log D procedure): 2.87; solubility at 15 min (Solubility in PBS; Solubility (uM)): 49 µM (≈ 92.3 µg/mL)
CC(=O)N1CCC[C@]12CC=CCCCC1(CCCC=CCCCOC(=O)N3CC[C@@](C(=O)N[C@@H](Cc4ccsc4)C(=O)N[C@@H](Cc4csc5ccccc45)C(=O)N[C@@H](Cc4c[nH]cn4)C(N)=O)(C3)NC(=O)[C@H](CC(N)=O)NC(=O)[C@H](Cc3ccccc3)NC(=O)[C@H](C)NC(=O)[C@H](CCCCNC(=O)Cn3cc(CNC(=O)c4ccc5c(c4)C4(OC5=O)c5ccc(O)cc5Oc5cc(O)ccc54)nn3)NC(=O)[C@H](CC(=O)O)NC(=O)[C@H](CC(=O)O)NC1=O)NC(=O)[C@H](CC(C)(C)C)NC(=O)[C@H](CC(=O)O)NC2=O (stereo partly drawn) [I-865, Ac-PL3-Asp-Npg-B5-Asp-Asp-[FAM6Ppg][1TriAc]Lys-Ala-Phe-Asn-PyrS2-3Thi-BztA-His-NH2]	–	1.62	38 µM (≈ 94.3 µg/mL)	–
CC(=O)N1CCC[C@]12CC=CCCCC1(CCCC=CCCCOC(=O)N3CC[C@@](C(=O)N[C@@H](Cc4ccsc4)C(=O)N[C@@H](Cc4csc5ccccc45)C(=O)N[C@@H](CCC(N)=O)C(N)=O)(C3)NC(=O)[C@H](CC(N)=O)NC(=O)[C@H](Cc3ccccc3)NC(=O)[C@H](C)NC(=O)[C@H](CCCCNC(=O)c3ccc(-n4cc(CNC(=O)c5ccc6c(c5)C5(OC6=O)c6ccc(O)cc6Oc6cc(O)ccc65)nn4)cc3)NC(=O)[C@H](CC(C)C)NC(=O)[C@H](CC(=O)O)NC1=O)NC(=O)[C@H](CC(C)(C)C)NC(=O)[C@H](CC(=O)O)NC2=O (stereo partly drawn) [I-867, Ac-PL3-Asp-Npg-B5-Asp-Leu-[FAM6Ppg][p1TB]Lys-Ala-Phe-Asn-PyrS2-3Thi-BztA-Gln-NH2]	–	1.8	13 µM (≈ 32.9 µg/mL)	–
CC(=O)N1CCC[C@]12CC=CCCCC1(CCCC=CCCCOC(=O)N3CC[C@@](C(=O)N[C@@H](Cc4ccsc4)C(=O)N[C@@H](Cc4csc5ccccc45)C(=O)N[C@@H](CCC(N)=O)C(N)=O)(C3)NC(=O)[C@H](CC(C)C)NC(=O)[C@H](Cc3ccccc3)NC(=O)[C@H](C)NC(=O)[C@H](CCCCNC(=O)c3ccc(-n4cc(CNC(=O)c5ccc6c(c5)C5(OC6=O)c6ccc(O)cc6Oc6cc(O)ccc65)nn4)cc3)NC(=O)[C@H](CC(C)C)NC(=O)[C@H](CC(=O)O)NC1=O)NC(=O)[C@H](CC(C)(C)C)NC(=O)[C@H](CC(=O)O)NC2=O (stereo partly drawn) [I-868, Ac-PL3-Asp-Npg-B5-Asp-Leu-[FAM6Ppg][p1TB]Lys-Ala-Phe-Leu-PyrS2-3Thi-BztA-Gln-NH2]	10 µM (≈ 25.3 µg/mL)	1.88	–	–
CC(=O)N1CCC[C@]12CC=CCCCC1(CCCC=CCCCOC(=O)N3CC[C@@](C(=O)N[C@@H](Cc4ccsc4)C(=O)N[C@@H](Cc4csc5ccccc45)C(=O)N[C@@H](CCC(N)=O)C(N)=O)(C3)NC(=O)[C@H](Cc3ccccc3)NC(=O)[C@H](Cc3ccccc3)NC(=O)[C@H](C)NC(=O)[C@H](CCCCNC(=O)c3ccc(-n4cc(CNC(=O)c5ccc6c(c5)C5(OC6=O)c6ccc(O)cc6Oc6cc(O)ccc65)nn4)cc3)NC(=O)[C@H](CC(C)C)NC(=O)[C@H](CC(=O)O)NC1=O)NC(=O)[C@H](CC(C)(C)C)NC(=O)[C@H](CC(=O)O)NC2=O (stereo partly drawn) [I-869, Ac-PL3-Asp-Npg-B5-Asp-Leu-[FAM6Ppg][p1TB]Lys-Ala-Phe-Phe-PyrS2-3Thi-BztA-Gln-NH2]	10 µM (≈ 25.6 µg/mL)	1.91	–	–
CC(=O)N1CCC[C@]12CC=CCCCC1(CCCC=CCCCOC(=O)N3CC[C@@](C(=O)N[C@@H](Cc4ccsc4)C(=O)N[C@@H](Cc4csc5ccccc45)C(=O)N[C@@H](CCC(N)=O)C(=O)N[C@@H](C)C(=O)N[C@@H](C)C(=O)N[C@@H](C)C(N)=O)(C3)NC(=O)[C@H](CC(N)=O)NC(=O)[C@H](Cc3ccccc3)NC(=O)[C@H](C)NC(=O)[C@H](C)NC(=O)[C@H](CC(=O)O)NC(=O)[C@H](CC(=O)O)NC1=O)NC(=O)[C@H](CC(C)(C)C)NC(=O)[C@H](CC(=O)O)NC2=O (stereo partly drawn) [I-870, Ac-PL3-Asp-Npg-B5-Asp-Asp-Ala-Ala-Phe-Asn-PyrS2-3Thi-BztA-Gln-Ala-Ala]	–	1.99	47 µM (≈ 100 µg/mL)	–
CC(=O)N1CCC[C@]12CC=CCCCC1(CCCC=CCCCOC(=O)N3CC[C@@](C(=O)N[C@@H](Cc4ccsc4)C(=O)N[C@@H](Cc4csc5ccccc45)C(=O)N[C@@H](CCC(N)=O)C(=O)N[C@H](C)C(=O)N[C@@H](C)C(=O)N[C@@H](C)C(N)=O)(C3)NC(=O)[C@H](CC(N)=O)NC(=O)[C@H](Cc3ccccc3)NC(=O)[C@H](C)NC(=O)[C@H](C)NC(=O)[C@H](CC(=O)O)NC(=O)[C@H](CC(=O)O)NC1=O)NC(=O)[C@H](CC(C)(C)C)NC(=O)[C@H](CC(=O)O)NC2=O (stereo partly drawn) [I-871, Ac-PL3-Asp-Npg-B5-Asp-Asp-Ala-Ala-Phe-Asn-PyrS2-3Thi-BztA-Gln-dAla-Ala]	–	1.92	45 µM (≈ 95.9 µg/mL)	–
CC(=O)N1CCC[C@]12CC=CCCCC1(CCCC=CCCCOC(=O)N3CC[C@@](C(=O)N[C@@H](Cc4ccsc4)C(=O)N[C@@H](Cc4csc5ccccc45)C(=O)N[C@@H](CCC(N)=O)C(=O)N[C@H](C)C(=O)N[C@H](C)C(=O)N[C@H](C)C(N)=O)(C3)NC(=O)[C@H](CC(N)=O)NC(=O)[C@H](Cc3ccccc3)NC(=O)[C@H](C)NC(=O)[C@H](C)NC(=O)[C@H](CC(=O)O)NC(=O)[C@H](CC(=O)O)NC1=O)NC(=O)[C@H](CC(C)(C)C)NC(=O)[C@H](CC(=O)O)NC2=O (stereo partly drawn) [I-872, Ac-PL3-Asp-Npg-B5-Asp-Asp-Ala-Ala-Phe-Asn-PyrS2-3Thi-BztA-Gln-dAla-dAla]	50 µM (≈ 107 µg/mL)	1.89	–	–
